≈ marks a conversion by molar mass, not a printed value.
How the values were obtained:
VEGFR1 = target: T1, VEGFR1 (Homo sapiens, UniProt P17948); experiment: Kinase inhibition, Mobility Shift Assay/IMAP, VEGFR1; type: biochemical
T1 construct: purchased Invitrogen PR6731B
How it was run: (§1)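 Substrate conversion (phosphorylated vs non-phosphorylated) read by mobility shift on Caliper EZ Reader II and converted to % inhibition relative to no-enzyme and DMSO controls. IC50 fitted from % inhibition versus log compound concentration.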

VEGFR3 = target: T2, VEGFR3 (Homo sapiens, UniProt P35916); experiment: Kinase inhibition, Mobility Shift Assay/IMAP, VEGFR3; type: biochemical
T2 construct: purchased Invitrogen PV4129
How it was run: as §1

TIE2 = target: T3, TIE2 (Homo sapiens, UniProt Q02763); experiment: Kinase inhibition, Mobility Shift Assay/IMAP, TIE2; type: biochemical
T3 construct: purchased BPS 40270
How it was run: as §1

EGFR = target: T4, EGFR (Homo sapiens, UniProt P00533); experiment: Kinase inhibition, Mobility Shift Assay/IMAP, EGFR; type: biochemical
T4 construct: purchased Carna 08-115
How it was run: as §1

[1] = Solubility test in buffer, LC-MS; type: physicochemical; details: aqueous buffer, thermodynamic from solid, room temperature, shaking 8 h, pH not given (method: pH 2.0, 6.5, 7.4)
How it was run: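 Compound at 2 mg/mL in buffers of pH 2.0, 6.5 and 7.4, sonicated, shaken 8 h at room temperature, then centrifuged at 13,000 rpm. Supernatant quantified by LC-MS against a 3–5 point calibration.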

melanin = experiment: Binding capacity of compounds to melanin; type: in vitro ADME, cuttlefish (Sepia officinalis); details: cuttlefish (Sepia officinalis), melanin suspension (1 mg/mL); 1 mg/mL melanin in PBS pH 7.4, 2 μM compound, 2 h at 37° C.; read-out: Fu % (percentage of free drug)
How it was run: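 Compound (2 μM final) incubated with washed Sepia melanin (1 mg/mL, PBS pH 7.4) 2 h at 37° C with shaking; PBS with 0.1% BSA served as blank. Supernatants quantified by LC-MS/MS; bound fraction Fb derived from melanin versus blank concentration.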

VEGFR2 [2] = target: T5, VEGFR2 (Homo sapiens, UniProt P35968); experiment: Kinase inhibition, Mobility Shift Assay/IMAP, VEGFR2; type: biochemical; parameters: purchased Carna 08-191
How it was run: as §1
Target sequence in this assay (P35968 790-1356 limits assumed): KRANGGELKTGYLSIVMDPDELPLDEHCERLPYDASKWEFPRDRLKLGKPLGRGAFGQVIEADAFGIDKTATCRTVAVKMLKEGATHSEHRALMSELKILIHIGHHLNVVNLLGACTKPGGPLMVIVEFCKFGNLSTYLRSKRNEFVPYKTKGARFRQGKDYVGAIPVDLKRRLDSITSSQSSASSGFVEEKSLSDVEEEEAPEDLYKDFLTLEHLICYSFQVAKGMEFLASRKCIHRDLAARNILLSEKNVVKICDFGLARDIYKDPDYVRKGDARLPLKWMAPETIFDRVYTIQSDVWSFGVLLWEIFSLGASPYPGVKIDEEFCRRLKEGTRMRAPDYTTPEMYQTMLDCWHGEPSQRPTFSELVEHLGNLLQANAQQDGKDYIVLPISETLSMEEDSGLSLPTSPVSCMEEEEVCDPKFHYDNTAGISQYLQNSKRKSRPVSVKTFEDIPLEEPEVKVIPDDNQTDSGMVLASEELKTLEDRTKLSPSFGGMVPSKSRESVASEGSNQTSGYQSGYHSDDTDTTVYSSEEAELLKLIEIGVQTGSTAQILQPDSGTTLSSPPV

VEGFR2 [3] = target: T5, VEGFR2; experiment: Inhibition of VEGF-induced VEGFR2 autophosphorylation (pVEGFR2) in HUVEC cells, ELISA; type: cell-based; parameters: endogenous in cells; host or cells: HUVEC; details: 50 ng/mL human VEGF, compound 1 h
Description: Vascular endothelial growth factor receptor 2 (VEGFR2) is a primary receptor for VEGF-induced endothelial cell signaling. After ligand binding, VEGFR2 is autophosphorylated and activated. The main function of signaling from VEGFR2 is to induce vascularization during development and after tissue injury, and to bypass blocked blood vessels. Pathologically, VEGF and VEGFR2 are involved in tumor angiogenesis and vascular leakage. They are considered to be main participants in many different cancers and ocular diseases that accompany pathological neovascularization. This assay measured the ability of the compounds to inhibit VEGF-induced VEGFR2 autophosphorylation (pVEGFR2) in HUVEC cells by using ELISA.
Culture cells in a cell culture flask to reach a fusion degree of 60%-80% before cell inoculation. Dilute the cell suspension to […] with a pre-warmed complete medium. Add 80 μL of the cell suspension to all wells of a 96-well cell plate (Corning-3599); and incubate the plate overnight at 37° C. in the presence of 5% CO2. Dissolve the compound powder to 10 mM with DMSO and store it in a nitrogen cabinet. Compound dilution plate: Add a reference compound Ponatinib or a compound to be tested to a 96 V-well plate (Axygen-WIPP 2280) at concentrations achieved as follows: performing 3-fold gradient dilution starting from 5 mM (5 μL of 10 mM compound solution plus 5 μL of DMSO) for a total of 8 concentration points. […] Transfer 20 μL of the diluted compound from the intermediate plate to a cell plate. Then, incubate the cell plate for 1 h at 37° C. in the presence of 5% CO2. After the compound was treated for 1 h, add 25 μL of 250 ng/ml human VEGF at a final concentration of 50 ng/mL to a 96-well plate; and incubate the plate for 5 min at 37° C. in the presence of 5% CO2, centrifuge the plate for 10 min at 3,000 rpm, remove the medium and wash the cells once with 300 μL of pre-chilled DPBS per well. Then, centrifuge the plate for 10 min at 4,000 rpm, remove DPBS, and add 110 μL of pre-chilled 1× cell lysis buffer per well to the 96-well plate. Shake the plate for 40 min at 4° C. Then, freeze the plate in a refrigerator at −80° C. On the next day, remove the plate from the refrigerator at −80° C., thaw the plate, centrifuge the plate for 10 min at 3500 rpm, and add 100 μL of the supernatant per well to an ELISA plate. Seal the plate and incubate it for 2 h at 37° C. Wash the wells 4 times with 1× wash buffer. Add 100 μL of recombinant detection antibody per well. Seal the plate, incubate the plate for 1 h at 37° C., and repeat the step of plate washing. Add 100 μL of secondary antibody per well. Seal the plate, incubate the plate for 30 min at 37° C., and repeat the step of plate washing. Add 100 μL of TMB (protected from light) per well. Seal the plate, incubate the plate for 30 min at 37° C., and add 100 μL of the stop solution per well. Gently shake for 30 sec, measure the absorbance with a SpectraMax® 340 PC 384 Absorbance Microplate Reader within 30 min, and read an optical density value at 450 nm. Conduct data analysis using XL Fit software:
Conduct curve fitting using the 4 Parameter Logistic Model or Sigmoidal Dose-Response Model to obtain IC50 values.
X indicates the log value of compound concentration, Y indicates the inhibition rate (% inhibition), Top indicates the readout of the negative control wells, and Bottom indicates the readout of the positive control well.
Target sequence in this assay (P35968 20-1356): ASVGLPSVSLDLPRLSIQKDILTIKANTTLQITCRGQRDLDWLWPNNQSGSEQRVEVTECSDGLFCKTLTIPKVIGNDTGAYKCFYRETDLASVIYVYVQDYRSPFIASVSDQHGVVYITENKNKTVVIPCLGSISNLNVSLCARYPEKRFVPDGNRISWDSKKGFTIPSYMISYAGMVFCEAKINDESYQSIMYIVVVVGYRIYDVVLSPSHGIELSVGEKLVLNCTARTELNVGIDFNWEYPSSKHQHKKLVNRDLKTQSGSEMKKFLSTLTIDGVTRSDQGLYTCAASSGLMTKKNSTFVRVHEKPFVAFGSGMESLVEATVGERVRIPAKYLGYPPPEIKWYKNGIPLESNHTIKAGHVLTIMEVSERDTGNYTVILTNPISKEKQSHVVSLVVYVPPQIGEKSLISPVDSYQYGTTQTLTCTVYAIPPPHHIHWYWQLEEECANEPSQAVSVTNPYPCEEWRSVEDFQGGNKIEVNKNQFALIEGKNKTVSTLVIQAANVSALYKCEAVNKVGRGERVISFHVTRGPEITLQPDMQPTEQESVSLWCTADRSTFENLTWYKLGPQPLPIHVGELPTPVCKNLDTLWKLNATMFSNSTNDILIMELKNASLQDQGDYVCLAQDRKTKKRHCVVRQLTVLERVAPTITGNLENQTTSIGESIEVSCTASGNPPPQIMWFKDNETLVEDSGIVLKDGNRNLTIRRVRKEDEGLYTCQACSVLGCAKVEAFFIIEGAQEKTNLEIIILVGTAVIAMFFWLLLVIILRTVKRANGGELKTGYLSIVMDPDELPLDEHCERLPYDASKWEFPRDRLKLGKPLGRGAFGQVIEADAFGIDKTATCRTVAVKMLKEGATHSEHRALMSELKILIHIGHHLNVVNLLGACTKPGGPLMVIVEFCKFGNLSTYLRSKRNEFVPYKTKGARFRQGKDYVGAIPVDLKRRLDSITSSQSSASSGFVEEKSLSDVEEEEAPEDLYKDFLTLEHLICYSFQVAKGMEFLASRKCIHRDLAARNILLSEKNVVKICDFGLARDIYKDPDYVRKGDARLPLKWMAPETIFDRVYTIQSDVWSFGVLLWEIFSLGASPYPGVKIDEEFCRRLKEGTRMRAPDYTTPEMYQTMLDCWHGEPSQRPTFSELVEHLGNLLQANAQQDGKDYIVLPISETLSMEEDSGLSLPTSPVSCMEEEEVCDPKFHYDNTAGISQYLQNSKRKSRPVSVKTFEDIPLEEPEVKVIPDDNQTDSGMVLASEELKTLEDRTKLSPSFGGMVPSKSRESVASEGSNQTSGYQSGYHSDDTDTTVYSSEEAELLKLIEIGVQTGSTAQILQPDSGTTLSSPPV

T1 sequence (P17948 27-1338): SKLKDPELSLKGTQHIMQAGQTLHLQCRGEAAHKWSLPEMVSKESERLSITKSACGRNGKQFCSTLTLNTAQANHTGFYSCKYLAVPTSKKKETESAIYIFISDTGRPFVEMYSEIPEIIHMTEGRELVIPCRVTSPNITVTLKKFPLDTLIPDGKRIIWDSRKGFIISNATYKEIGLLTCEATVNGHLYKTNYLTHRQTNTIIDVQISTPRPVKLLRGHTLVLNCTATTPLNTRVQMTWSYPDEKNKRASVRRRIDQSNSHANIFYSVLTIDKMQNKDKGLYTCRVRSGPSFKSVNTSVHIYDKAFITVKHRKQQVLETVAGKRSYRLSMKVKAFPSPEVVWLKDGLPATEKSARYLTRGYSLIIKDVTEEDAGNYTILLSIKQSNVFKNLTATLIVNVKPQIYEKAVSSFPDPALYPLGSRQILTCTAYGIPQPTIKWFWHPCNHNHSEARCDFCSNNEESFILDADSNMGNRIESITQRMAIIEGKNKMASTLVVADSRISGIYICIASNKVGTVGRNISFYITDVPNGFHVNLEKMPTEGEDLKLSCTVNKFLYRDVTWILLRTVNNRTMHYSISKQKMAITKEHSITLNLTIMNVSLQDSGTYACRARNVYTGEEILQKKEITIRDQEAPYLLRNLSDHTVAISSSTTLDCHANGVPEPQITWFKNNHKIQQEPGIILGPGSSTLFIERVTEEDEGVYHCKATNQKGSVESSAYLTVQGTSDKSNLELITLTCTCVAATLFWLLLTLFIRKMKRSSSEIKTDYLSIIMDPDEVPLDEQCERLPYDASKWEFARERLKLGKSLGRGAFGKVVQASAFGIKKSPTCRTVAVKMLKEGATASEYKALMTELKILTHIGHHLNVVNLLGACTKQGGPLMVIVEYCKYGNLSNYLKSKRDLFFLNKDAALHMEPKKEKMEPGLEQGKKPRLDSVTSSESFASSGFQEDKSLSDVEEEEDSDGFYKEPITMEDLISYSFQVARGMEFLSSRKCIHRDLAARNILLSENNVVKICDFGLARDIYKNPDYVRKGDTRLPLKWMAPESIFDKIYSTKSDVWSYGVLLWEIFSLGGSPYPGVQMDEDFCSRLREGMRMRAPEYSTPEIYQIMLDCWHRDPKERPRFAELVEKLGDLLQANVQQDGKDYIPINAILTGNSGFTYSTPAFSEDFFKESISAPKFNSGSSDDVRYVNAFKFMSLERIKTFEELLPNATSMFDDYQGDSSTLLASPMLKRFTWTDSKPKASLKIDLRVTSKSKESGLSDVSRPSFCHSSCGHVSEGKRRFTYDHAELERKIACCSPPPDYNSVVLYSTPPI
T2 sequence (P35916 25-1363): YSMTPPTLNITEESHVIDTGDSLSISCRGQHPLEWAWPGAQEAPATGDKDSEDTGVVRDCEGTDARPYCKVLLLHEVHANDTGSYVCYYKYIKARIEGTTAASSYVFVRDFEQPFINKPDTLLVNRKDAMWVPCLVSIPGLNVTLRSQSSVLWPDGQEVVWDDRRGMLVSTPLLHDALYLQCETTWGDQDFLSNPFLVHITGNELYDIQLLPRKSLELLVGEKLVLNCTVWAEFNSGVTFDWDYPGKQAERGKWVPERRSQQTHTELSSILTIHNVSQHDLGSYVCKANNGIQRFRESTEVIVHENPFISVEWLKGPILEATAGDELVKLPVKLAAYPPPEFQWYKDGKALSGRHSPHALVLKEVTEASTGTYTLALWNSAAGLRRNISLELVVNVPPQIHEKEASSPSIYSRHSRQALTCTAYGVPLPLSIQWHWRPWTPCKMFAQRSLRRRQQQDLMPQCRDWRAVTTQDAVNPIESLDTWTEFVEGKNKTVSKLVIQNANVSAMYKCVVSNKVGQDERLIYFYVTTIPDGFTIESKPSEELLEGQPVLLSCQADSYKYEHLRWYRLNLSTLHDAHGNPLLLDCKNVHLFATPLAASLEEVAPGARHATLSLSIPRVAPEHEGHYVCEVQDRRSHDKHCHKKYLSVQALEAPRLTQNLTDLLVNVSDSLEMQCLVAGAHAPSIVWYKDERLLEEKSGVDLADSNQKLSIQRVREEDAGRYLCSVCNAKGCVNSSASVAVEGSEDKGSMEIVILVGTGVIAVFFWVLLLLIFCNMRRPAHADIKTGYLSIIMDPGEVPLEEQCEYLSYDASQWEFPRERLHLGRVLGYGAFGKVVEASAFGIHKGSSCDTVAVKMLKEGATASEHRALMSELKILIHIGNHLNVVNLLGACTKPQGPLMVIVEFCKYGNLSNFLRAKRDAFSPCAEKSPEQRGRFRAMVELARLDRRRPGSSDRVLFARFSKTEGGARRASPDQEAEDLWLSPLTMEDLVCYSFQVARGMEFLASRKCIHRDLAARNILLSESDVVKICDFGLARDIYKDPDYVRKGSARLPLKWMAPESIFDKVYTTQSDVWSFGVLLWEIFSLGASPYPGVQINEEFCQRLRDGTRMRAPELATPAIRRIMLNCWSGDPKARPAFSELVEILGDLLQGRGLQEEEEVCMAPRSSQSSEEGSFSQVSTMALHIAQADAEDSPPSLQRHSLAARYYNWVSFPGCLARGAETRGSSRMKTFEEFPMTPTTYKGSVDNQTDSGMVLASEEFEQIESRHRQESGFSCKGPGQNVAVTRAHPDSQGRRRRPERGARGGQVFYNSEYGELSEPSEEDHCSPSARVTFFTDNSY
T4 sequence (P00533 669-1210 limits assumed): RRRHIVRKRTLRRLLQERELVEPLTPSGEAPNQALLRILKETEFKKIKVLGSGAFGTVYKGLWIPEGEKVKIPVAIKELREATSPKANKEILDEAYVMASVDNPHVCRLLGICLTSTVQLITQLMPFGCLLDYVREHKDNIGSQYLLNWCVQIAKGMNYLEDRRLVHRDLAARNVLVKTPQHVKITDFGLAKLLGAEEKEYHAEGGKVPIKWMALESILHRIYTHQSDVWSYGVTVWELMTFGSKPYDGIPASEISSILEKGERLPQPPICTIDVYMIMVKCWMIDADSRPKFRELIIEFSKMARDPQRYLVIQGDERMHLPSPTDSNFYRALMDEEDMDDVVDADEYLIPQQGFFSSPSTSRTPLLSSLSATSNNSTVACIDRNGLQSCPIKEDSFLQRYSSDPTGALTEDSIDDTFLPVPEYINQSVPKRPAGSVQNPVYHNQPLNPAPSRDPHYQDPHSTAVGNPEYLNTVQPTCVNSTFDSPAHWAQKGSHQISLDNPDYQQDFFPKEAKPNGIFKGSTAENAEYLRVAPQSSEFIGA

IC50 (VEGFR1) [nM]	IC50 (VEGFR3) [nM]	IC50 (TIE2) [nM]	IC50 (EGFR) [nM]	solubility at 8 h [1] [µg/mL]	fraction unbound at 2 h, 2 μM (melanin)	IC50 (VEGFR2 [2]) [nM]	IC50 (VEGFR2 [3]) [nM]	SMILES
5.72	16.8	4060	16100	800 (≈ 1500 µM)	0.0241	2.09	56.5	CN1CCN(CCCNC(=O)Nc2snc(OCc3ccc(F)c(C(=O)NC4CC4)c3)c2C(N)=O)CC1 [Compound T078, 3-[[3-(cyclopropylcarbamoyl)-4-fluoro-phenyl]methoxy]-5-[3-(4-methylpiperazin-1-yl)propylcarbamoylamino]isothiazole-4-carboxamide]
		4910	16500		0.0666	1.56	132	NC(=O)c1c(OCc2cc(C(=O)NC3CC3)ccc2F)nsc1NC(=O)NCCCN1CCCC1 [Compound T098, 3-((5-(cyclopropylcarbamoyl)-2-fluorobenzyl)oxy)-5-(3-(3-(pyrrolidin-1-yl)propyl)ureido)isothiazole-4-carboxamide]
		1180				1.2	4.9	NC(=O)c1c(OCc2cc(C(=O)NC3CC3)c(F)cc2F)nsc1NC(=O)NCCCCN1CCCC1 [Compound T128, 3-[[5-(cyclopropylcarbamoyl)-2,4-difluoro-phenyl]methoxy]-5-(4-pyrrolidin-1-ylbutylcarbamoylamino)isothiazole-4-carboxamide]
1.53	3.91		10700	1340 (≈ 2590 µM)		1.75	68.4	NC(=O)c1c(OCc2ccc(F)c(C(=O)NC3CC3)c2)nsc1NC(=O)NCCCCN1CCCC1 [Compound T151, 3-[[3-(cyclopropylcarbamoyl)-4-fluoro-phenyl]methoxy]-5-(4-pyrrolidin-1-ylbutylcarbamoylamino)isothiazole-4-carboxamide]

The next lines start with the molecule.

SMILES	IC50 (VEGFR1) [nM]	IC50 (VEGFR3) [nM]	IC50 (TIE2) [nM]	IC50 (EGFR) [nM]	solubility at 8 h [1] [µg/mL]	fraction unbound at 2 h, 2 μM (melanin)	IC50 (VEGFR2 [2]) [nM]	IC50 (VEGFR2 [3]) [nM]
COc1ccc(F)c(COc2nsc(NC(=O)NCCCCN3CCCCC3)c2C(N)=O)c1F [Compound T131, 3-[(2,6-difluoro-3-methoxy-phenyl)methoxy]-5-[4-(1-piperidyl)butylcarbamoylamino]isothiazole-4-carboxamide]				15000	278 (≈ 559 µM)	0.0629	17.4	19
NC(=O)c1c(OCc2c(F)cc3c(c2F)OCC3)nsc1NC(=O)NCCCCN1CC[C@H](O)C1 [Compound T134, 3-[(5,7-difluoro-2,3-dihydrobenzofuran-6-yl)methoxy]-5-[4-[(3S)-3-hydroxypyrrolidin-1-yl]butylcarbamoylamino]isothiazole-4-carboxamide]				20600		0.0401	6.6	16
COc1cc(OC)c(F)c(COc2nsc(NC(=O)NCCC3CCN(C)CC3)c2C(N)=O)c1F [Compound T145, 3-[(2,6-difluoro-3,5-dimethoxy-phenyl)methoxy]-5-[2-(1-methyl-4-piperidyl)ethylcarbamoylamino]isothiazole-4-carboxamide]				> 60000		0.0437	1.39	2.2
CN1CCN(CCNC(=O)Nc2snc(OCc3ccc(F)c(C(=O)NC4CC4)c3)c2C(N)=O)CC1 [Compound T149, 3-[[3-(cyclopropylcarbamoyl)-4-fluoro-phenyl]methoxy]-5-[2-(4-methylpiperazin-1-yl)ethylcarbamoylamino]isothiazole-4-carboxamide]	2.39	10		12000	1580 (≈ 3040 µM)		2.35	52.2
